Article PMC2626250 (Toxicology and applied pharmacology, 2008)

How the values were obtained:
EtaA = details: pH 7.5; cited from earlier work
[1] = oral administration of therapeutic doses; ref Conte et al., 2000; cited from earlier work
mFmos and hFMOs = details: 4 mM GSH added following 15 minutes of incubation; 200 μM ETA
mouse liver microsomes = experiment: Effect of inhibitors on S-oxidation of ETA by mouse liver microsomes; assay type: in vitro ADME; details: 200 μM ETA
mouse lung microsomes = experiment: Effect of inhibitors on S-oxidation of ETA by mouse lung microsomes; assay type: in vitro ADME; details: 200 μM ETA

Question: What does the source list for CCc1cc(C(N)=S)ccn1 [ETA, ethionamide]?
Answer: specificity constant for the formation of ETASO (EtaA): 0.04; concentration of ETA in human plasma [1]: approximately 6 μM; concentration of ETA in lung alveolar cells [1]: ~2.4 µM; concentration of ETA in lung epithelial lining fluid [1]: ~35 µM

Question: With N[C@@H](CCC(=O)N[C@@H](CS)C(=O)NCC(=O)O)C(=O)O [GSH, Glutathione] as the compound, how does the ETASO removed (mFmos and hFMOs) read?
Answer: ~50%

Question: What does the source list for CCCC(C(=O)OCCN(CC)CC)(c1ccccc1)c1ccccc1 [SKF-525A]?
Answer: activity remaining (appearance of ETASO) (mouse liver microsomes; SKF-525A 1 mM): 82.9%; activity remaining (appearance of ETASO) (mouse lung microsomes; SKF-525A 1 mM): 102.4%

Question: For NC(N)=S [thiourea], which “reduction of ETA oxygenation to ETASO” value (mouse liver microsomes; thiourea 200 μM, average) is on record?
Answer: 73.5%

Question: And the “reduction of ETA oxygenation to ETASO” value (mouse lung microsomes; thiourea 200 μM, average)?
Answer: 76.9%
